Laboratory results as given in PubChem BioAssay (NCI).
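All cell lines were grown in 96-well plates and treated with compound for 48 hours. Here, GI50 denotes the concentration required for 50% inhibition of growth. TGI: concentration producing complete growth inhibition.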

Legend:
Assay in all cases: NCI tumour cell line growth inhibition, 48 h
U251 CNS = tested on: U251 CNS
RXF 393 renal = tested on: RXF 393 renal
MCF7 breast = tested on: MCF7 breast
NCI/ADR-RES ovarian = tested on: NCI/ADR-RES ovarian
A498 renal = tested on: A498 renal
NCI-H23 lung = tested on: NCI-H23 lung
KM12 colon = tested on: KM12 colon
HCT-116 colon = tested on: HCT-116 colon
A549 NSCLC = tested on: A549 NSCLC
SR leukemia = tested on: SR leukemia
786-0 renal = tested on: 786-0 renal
SK-OV-3 ovarian = tested on: SK-OV-3 ovarian
EKVX NSCLC = tested on: EKVX NSCLC
SK-MEL-28 melanoma = tested on: SK-MEL-28 melanoma
M14 melanoma = tested on: M14 melanoma
LOX IMVI melanoma = tested on: LOX IMVI melanoma
UACC-257 melanoma = tested on: UACC-257 melanoma
SK-MEL-5 melanoma = tested on: SK-MEL-5 melanoma
IGROV1 ovarian = tested on: IGROV1 ovarian
DU-145 prostate = tested on: DU-145 prostate
BT-549 breast = tested on: BT-549 breast
HCC-2998 colon = tested on: HCC-2998 colon
HCT-15 colon = tested on: HCT-15 colon
UO-31 renal = tested on: UO-31 renal
SF-539 CNS = tested on: SF-539 CNS
HS 578T breast = tested on: HS 578T breast
SN12C renal = tested on: SN12C renal
OVCAR-8 ovarian = tested on: OVCAR-8 ovarian
SF-295 CNS = tested on: SF-295 CNS
CCRF-CEM leukemia = tested on: CCRF-CEM leukemia
COLO 205 colon = tested on: COLO 205 colon
NCI-H460 lung = tested on: NCI-H460 lung
SW-620 colon = tested on: SW-620 colon
SK-MEL-2 melanoma = tested on: SK-MEL-2 melanoma
MDA-MB-435 = tested on: MDA-MB-435
OVCAR-3 ovarian = tested on: OVCAR-3 ovarian
MALME-3M melanoma = tested on: MALME-3M melanoma
NCI-H522 lung = tested on: NCI-H522 lung
RPMI-8226 leukemia = tested on: RPMI-8226 leukemia
HL-60(TB) leukemia = tested on: HL-60(TB) leukemia
HOP-62 NSCLC = tested on: HOP-62 NSCLC
T-47D breast = tested on: T-47D breast
SNB-75 CNS = tested on: SNB-75 CNS
HT29 colon = tested on: HT29 colon
OVCAR-5 ovarian = tested on: OVCAR-5 ovarian
SNB-19 CNS = tested on: SNB-19 CNS
PC-3 prostate = tested on: PC-3 prostate
MDA-MB-231 breast = tested on: MDA-MB-231 breast
K-562 leukemia = tested on: K-562 leukemia
ACHN renal = tested on: ACHN renal
UACC-62 melanoma = tested on: UACC-62 melanoma
TK-10 renal = tested on: TK-10 renal
SF-268 CNS = tested on: SF-268 CNS
CAKI-1 renal = tested on: CAKI-1 renal
OVCAR-4 ovarian = tested on: OVCAR-4 ovarian
MOLT-4 leukemia = tested on: MOLT-4 leukemia

Question: How did the GI50 (U251 CNS) turn out when `Nc1nc(N)c(C=Nc2ccc(Br)cc2)c(Nc2ccc(Br)cc2)n1` was run?
Answer: 12 µM

Question: What about the TGI (U251 CNS) of the same compound?
Answer: 30.1 µM

Question: And the GI50 (RXF 393 renal)?
Answer: 2890 nM

Question: And the TGI (RXF 393 renal)?
Answer: 13.6 µM

Question: And the GI50 (MCF7 breast)?
Answer: 2570 nM

Question: And the TGI (MCF7 breast)?
Answer: 15.1 µM

Question: What about the GI50 (NCI/ADR-RES ovarian) of the same compound?
Answer: 5.54 µM

Question: What about the TGI (NCI/ADR-RES ovarian) of the same compound?
Answer: 26.3 µM

Question: And the GI50 (A498 renal)?
Answer: 10.6 µM

Question: What about the TGI (A498 renal) of the same compound?
Answer: 22.4 µM

Question: And the GI50 (NCI-H23 lung)?
Answer: 10 µM

Question: And the TGI (NCI-H23 lung)?
Answer: 27.3 µM

Question: And the GI50 (KM12 colon)?
Answer: 4.22 µM

Question: What about the TGI (KM12 colon) of the same compound?
Answer: 18.4 µM

Question: And the GI50 (HCT-116 colon)?
Answer: 6.46 µM

Question: And the TGI (HCT-116 colon)?
Answer: 19.2 µM

Question: What about the GI50 (A549 NSCLC) of the same compound?
Answer: 12.4 µM

Question: And the TGI (A549 NSCLC)?
Answer: 29.6 µM

Question: And the GI50 (SR leukemia)?
Answer: 2610 nM

Question: And the TGI (SR leukemia)?
Answer: 10.2 µM

Question: And the GI50 (786-0 renal)?
Answer: 11.1 µM

Question: What about the TGI (786-0 renal) of the same compound?
Answer: 23 µM

Question: What about the GI50 (SK-OV-3 ovarian) of the same compound?
Answer: 15.1 µM

Question: And the TGI (SK-OV-3 ovarian)?
Answer: 28.4 µM

Question: And the GI50 (EKVX NSCLC)?
Answer: 10.5 µM

Question: And the TGI (EKVX NSCLC)?
Answer: 24.1 µM

Question: And the GI50 (SK-MEL-28 melanoma)?
Answer: 12.3 µM

Question: And the TGI (SK-MEL-28 melanoma)?
Answer: 24.7 µM

Question: What about the GI50 (M14 melanoma) of the same compound?
Answer: 9.59 µM

Question: And the TGI (M14 melanoma)?
Answer: 21.4 µM

Question: And the GI50 (LOX IMVI melanoma)?
Answer: 3.01 µM

Question: And the TGI (LOX IMVI melanoma)?
Answer: 16.4 µM

Question: And the GI50 (UACC-257 melanoma)?
Answer: 14.7 µM

Question: What about the TGI (UACC-257 melanoma) of the same compound?
Answer: 30.7 µM

Question: And the GI50 (SK-MEL-5 melanoma)?
Answer: 13.5 µM

Question: What about the TGI (SK-MEL-5 melanoma) of the same compound?
Answer: 26.3 µM

Question: And the GI50 (IGROV1 ovarian)?
Answer: 8.72 µM

Question: And the TGI (IGROV1 ovarian)?
Answer: 46.2 µM

Question: What about the GI50 (DU-145 prostate) of the same compound?
Answer: 12.3 µM

Question: What about the TGI (DU-145 prostate) of the same compound?
Answer: 28.6 µM

Question: And the GI50 (BT-549 breast)?
Answer: 12.9 µM

Question: What about the TGI (BT-549 breast) of the same compound?
Answer: 25.5 µM

Question: What about the GI50 (HCC-2998 colon) of the same compound?
Answer: 3.89 µM

Question: And the TGI (HCC-2998 colon)?
Answer: 14 µM

Question: And the GI50 (HCT-15 colon)?
Answer: 7.44 µM

Question: And the TGI (HCT-15 colon)?
Answer: 34.4 µM

Question: What about the GI50 (UO-31 renal) of the same compound?
Answer: 6.55 µM

Question: And the TGI (UO-31 renal)?
Answer: 28.1 µM

Question: And the GI50 (SF-539 CNS)?
Answer: 12.1 µM

Question: What about the TGI (SF-539 CNS) of the same compound?
Answer: 24.4 µM

Question: What about the GI50 (HS 578T breast) of the same compound?
Answer: 8.96 µM

Question: What about the TGI (HS 578T breast) of the same compound?
Answer: 26.8 µM

Question: What about the GI50 (SN12C renal) of the same compound?
Answer: 8.19 µM

Question: And the TGI (SN12C renal)?
Answer: 33.6 µM

Question: And the GI50 (OVCAR-8 ovarian)?
Answer: 15.2 µM

Question: And the TGI (OVCAR-8 ovarian)?
Answer: 40.7 µM

Question: And the GI50 (SF-295 CNS)?
Answer: 11.3 µM

Question: What about the TGI (SF-295 CNS) of the same compound?
Answer: 38.5 µM

Question: And the GI50 (CCRF-CEM leukemia)?
Answer: 9.3 µM

Question: And the TGI (CCRF-CEM leukemia)?
Answer: 26.2 µM

Question: What about the GI50 (COLO 205 colon) of the same compound?
Answer: 14.5 µM

Question: What about the TGI (COLO 205 colon) of the same compound?
Answer: 34.6 µM

Question: And the GI50 (NCI-H460 lung)?
Answer: 4.39 µM

Question: What about the TGI (NCI-H460 lung) of the same compound?
Answer: 20.1 µM

Question: What about the GI50 (SW-620 colon) of the same compound?
Answer: 14.1 µM

Question: What about the TGI (SW-620 colon) of the same compound?
Answer: 99.1 µM

Question: And the GI50 (SK-MEL-2 melanoma)?
Answer: 10.2 µM

Question: What about the TGI (SK-MEL-2 melanoma) of the same compound?
Answer: 23 µM

Question: And the GI50 (MDA-MB-435)?
Answer: 10.5 µM

Question: What about the TGI (MDA-MB-435) of the same compound?
Answer: 27.6 µM

Question: And the GI50 (OVCAR-3 ovarian)?
Answer: 11.8 µM

Question: And the TGI (OVCAR-3 ovarian)?
Answer: 25.3 µM

Question: And the GI50 (MALME-3M melanoma)?
Answer: 17.8 µM

Question: And the TGI (MALME-3M melanoma)?
Answer: 39.7 µM

Question: What about the GI50 (NCI-H522 lung) of the same compound?
Answer: 8.2 µM

Question: And the TGI (NCI-H522 lung)?
Answer: 33.2 µM

Question: And the GI50 (RPMI-8226 leukemia)?
Answer: 16.6 µM

Question: What about the TGI (RPMI-8226 leukemia) of the same compound?
Answer: 38.7 µM

Question: What about the GI50 (HL-60(TB) leukemia) of the same compound?
Answer: 15.6 µM

Question: What about the TGI (HL-60(TB) leukemia) of the same compound?
Answer: 49.2 µM

Question: And the GI50 (HOP-62 NSCLC)?
Answer: 10.5 µM

Question: What about the TGI (HOP-62 NSCLC) of the same compound?
Answer: 22.5 µM

Question: What about the GI50 (T-47D breast) of the same compound?
Answer: 4.22 µM

Question: And the TGI (T-47D breast)?
Answer: 18.4 µM

Question: And the GI50 (SNB-75 CNS)?
Answer: 5.02 µM

Question: What about the TGI (SNB-75 CNS) of the same compound?
Answer: 18.6 µM

Question: And the GI50 (HT29 colon)?
Answer: 5.81 µM

Question: What about the TGI (HT29 colon) of the same compound?
Answer: > 100 µM

Question: And the GI50 (OVCAR-5 ovarian)?
Answer: 9.98 µM

Question: And the TGI (OVCAR-5 ovarian)?
Answer: 21.5 µM

Question: And the GI50 (SNB-19 CNS)?
Answer: 12.4 µM

Question: And the TGI (SNB-19 CNS)?
Answer: 32.4 µM

Question: What about the GI50 (PC-3 prostate) of the same compound?
Answer: 8.34 µM

Question: And the TGI (PC-3 prostate)?
Answer: 26.4 µM

Question: What about the GI50 (MDA-MB-231 breast) of the same compound?
Answer: 7.36 µM

Question: And the TGI (MDA-MB-231 breast)?
Answer: 28.3 µM

Question: What about the GI50 (K-562 leukemia) of the same compound?
Answer: 2910 nM

Question: What about the TGI (K-562 leukemia) of the same compound?
Answer: 8.68 µM

Question: And the GI50 (ACHN renal)?
Answer: 8.96 µM

Question: What about the TGI (ACHN renal) of the same compound?
Answer: 28 µM

Question: And the GI50 (UACC-62 melanoma)?
Answer: 12.1 µM

Question: And the TGI (UACC-62 melanoma)?
Answer: 24.4 µM

Question: And the GI50 (TK-10 renal)?
Answer: 13 µM

Question: And the TGI (TK-10 renal)?
Answer: 37.6 µM

Question: What about the GI50 (SF-268 CNS) of the same compound?
Answer: 8.16 µM

Question: What about the TGI (SF-268 CNS) of the same compound?
Answer: 27.1 µM

Question: And the GI50 (CAKI-1 renal)?
Answer: 3.45 µM

Question: And the TGI (CAKI-1 renal)?
Answer: 18.7 µM

Question: What about the GI50 (OVCAR-4 ovarian) of the same compound?
Answer: 10.6 µM

Question: And the TGI (OVCAR-4 ovarian)?
Answer: 25 µM

Question: And the GI50 (MOLT-4 leukemia)?
Answer: 10.7 µM

Question: What about the TGI (MOLT-4 leukemia) of the same compound?
Answer: 28.5 µM
